{"source": "patent US11136547B2", "about": "“Mesoderm induction method having high blood cell differentiation capacity” (Kyoto University, priority 2016, dated 2021)", "molecules": {"B1": {"name": "NOGGIN: physiological BMP antagonist (protein, UniProt Q13253 28-232, looked up)", "Noggin": "QHYLHIRPAPSDNLPLVDLIEHPDPIFDPKEKDLNETLLRSLLGGHYDPGFMATSPPEDRPGGGGGAAGGAEDLAELDQLLRQRPSGAMPSEIKGLEFSEGLAQGKKQRLSKKLRRKLQMWLWSQTFCPVLYAWNDLGSRFWPRYVKVGSCFSKRSCSVPEGMVCKPSKSVHLTVLRWRCQRRGGQRCGWIPIQYPIISECKCSC"}}, "key": {"[1]": {"system": "KhES3 and H1 cells", "experiment": "Initial step intervention in C3H10T1/2 co-culture: occurrence of CD56+APJ+ mesodermal cells on day 4 (flow cytometry)", "assay_type": "cell-based, human", "conditions": "factor added on days 0 to 4; co-culture with C3H10T1/2; compared with control group; n=3", "procedure": "(§1) Human ES cells that had been maintenance cultured in MEF were detached from the bottom of the dish in colony form as at the time of passage, and seeded on an inactivated C3H10T1/2 dish that had been prepared the previous day. The seeding rate was roughly 5×10^4 to 2×10^5 cells per 10-cm dish, although this is an estimate because the cells could not be counted. The medium was blood cell differentiation medium to which VEGF had been added to a final concentration of 20 ng/mL. Single cells were collected using 0.05% trypsin EDTA as necessary, the cells were counted, Y27632 was added to […], and the cells were differentiated as single cells.\n(§2) When analyzing cells during differentiation, the culture supernatant was removed, the cells were washed twice with PBS, and 2 mL/dish of 0.25% trypsin EDTA was added and incubated for 5 minutes at 37° C. The cells were separated into single cells by pipetting with a Pipetman (p1000), and collected in a 15 mL centrifuge tube. Blood cell differentiation medium was added to stop the reaction, and after centrifugation and removal of the supernatant, the cells were suspended in the necessary medium and analyzed.\n(§3) Cells in a single-cell state were prepared as necessary, and fluorescent labeled antibodies were also included as necessary in amounts matching the cell numbers. […] These were then diluted with SM and centrifuged, the supernatant was removed, and the cells were suspended in the necessary amount of SMPI and analyzed. […]\nTaking cell surface markers as an evaluation standard, KhES3 and H1 cells were used to investigate what changes are seen in the occurrence of CD56+APJ+ cells due to interventions in the initial step. […] For the added concentrations of each factor, the maximum concentration was determined with reference to previous reports, and this was then diluted to investigate concentration (Inman, G. J. et al., Mol. Pharmacol. 62, 65-74 (2002); Xu, R.-H. et al., Nat Meth 2, 185-190 (2005); Huang, S.-M. A. et al., Nature 461, 614-620 (2009))."}, "[2]": {"system": "KhES3 and H1 cells", "experiment": "Intermediate step intervention in C3H10T1/2 co-culture: occurrence of CD43+ blood cells on day 10", "assay_type": "cell-based, human", "conditions": "factor added in intermediate step days 4 to 7, in the presence of VEGF; compared with control/DMSO group; n=3", "procedure": "as §1\nas §2, with “The cells were separated into single cells by pipetting with a Pipetman (p1000), and collected in a 15 mL centrifuge tube.” left out\nas §3"}}, "note": "Entries after “also recorded” stand apart in the source; their conditions may differ."}
{"molecule": "Oc1nc(-c2ccc(C(F)(F)F)cc2)nc2c1CSCC2", "note": "[XAV939]", "values": [{"measurement": "occurrence of CD56+APJ+ mesodermal cells on day 4", "setting": "[1]", "result": "reduction in CD56+APJ+ cells was confirmed; also recorded: tended to decrease"}]}
{"molecule": "bFGF: basic fibroblast growth factor", "values": [{"measurement": "percentage occurrence of blood cells (CD43+) on day 10", "setting": "[2]", "result": "tended to be better"}]}
{"molecule": "NC(=O)c1ccc(-c2nc(-c3ccc4c(c3)OCO4)c(-c3ccccn3)[nH]2)cc1", "note": "[SB431542]", "values": [{"measurement": "occurrence of CD56+APJ+ mesodermal cells on day 4", "setting": "[1]", "result": "sharp drop in the ratio of CD56+APJ+ cells at the low concentration point; also recorded: significant decrease in the mesodermal cell population"}, {"measurement": "percentage occurrence of blood cells (CD43+) on day 10", "setting": "[2]", "result": "increased; also recorded: significantly improved"}]}
{"molecule": "B1", "values": [{"measurement": "occurrence of CD56+APJ+ mesodermal cells on day 4", "setting": "[1]", "result": "drop in CD56+APJ+ cells was confirmed, but the effect was limited; also recorded: decrease in the mesodermal cell population"}]}
